From patent publication US8658692B2, “Method of preparation an inclusion-complex comprising hydrophobic physiological activation material including with cyclodextrin and its use” (Macrocare Tech., Ltd., priority 2007, dated 2014)

Assays:
human fibroblasts [1] = assay: Collagen synthesis / collagen proliferation performance (3H-proline incorporation, RCB); type: cell-based; conditions: for collagen proliferation, result in words (Table 2, FIG. 4): concentrations 10^−6 to 10^−4
Experimental: In order to determine degree of collagen synthesis, human fibroblasts were cultured in a 24-well microtiter plate. The same sample as used for cell proliferation was diluted in a rate of 1/10 in a culture medium and the diluted sample was added to the cultured fibroblasts. The samples used herein were vitamin C, genistein, cyclodextrin, and the inclusion-complexes prepared in Examples 1 and 2.
At 3 days after culture, 0.5 ml of 10% FBS containing DMEM medium was added to each well, followed by adding 10 μCi of L[2,3,4,5-3H]-proline thereto. After 24 hours, the medium and the cells were collected from the well and fed into a 5% trichloroacetic acid (TCA) solution to rinse the product. The rinsed product was plated in two test tubes. 1 unit/μl of Type I collagenase was added to one of the test tubes and cultured at 37° C. for 90 minutes, while the other test tube was stored at 4° C.
After that, adding 0.05 ml of 50% TCA to both the test tubes and leaving the same at 4° C. for 20 minutes, each of the test tubes was subjected to centrifugation at 12,000 rpm for 10 minutes. The resultant supernatant and precipitate were detected using a liquid scintillation counter (LSC) to measure decay per minute (dpm) values. The measured dpm values were used to calculate relative collagen biosynthesis (RCB) values according to the following equation 1: RCB=collagen dpm value/{[([…])×5.4]+collagen dpm value}×100 Equation 1

human fibroblasts [2] = assay: Fibroblast proliferation performance (MTT); type: cell-based; conditions: 4 days culture
Experimental: In order to evaluate cell proliferation performance of the inclusion-complex according to the present invention, fibroblast proliferation performance was determined.
More particularly, human fibroblasts were cultured in Dulbecco s Modified Eagle's medium (DMEM) containing 2.5% fetal bovine serum (FBS) and the cultured cells were plated in a 96-well microtiter plate at 5,000 cells/well.
Each of the inclusion-complex produced in Example 1 (an inclusion-complex of β-cyclodextrin/geniste with a genistein concentration of 5%), the inclusion-complex produced in Example 2 (an inclusion-complex of hydroxypropyl β-cyclodextrin/genistein with a genistein concentration of 5%) was used as a test sample. On the other hand, genistein, retinol and tocopherol, hydroxypropyl β-cyclodextrin and β-cyclodextrin, respectively, were used as controls. Each of the samples was regulated to have a final concentration of 1 mg/ml and added to the fibroblasts, followed by additional culturing of the fibroblasts for 4 days.
After completing the culture, 50 μl of 0.2% MTT (3-[4,5-dimethylthiazol-2-yl]-2,5-diphenyltetrazolium bromide) solution was added to each well, and then, cultured at 37° C. for 4 hours. The obtained formazan was dissolved in dimethyl sulfoxide (DMSO). The formazan solution was subjected to determination of absorption at 570 nm using a microplate reader.

`OC[C@H]1O[C@@H]2O[C@H]3[C@H](O)[C@@H](O)[C@@H](O[C@H]4[C@H](O)[C@@H](O)[C@@H](O[C@H]5[C@H](O)[C@@H](O)[C@@H](O[C@H]6[C@H](O)[C@@H](O)[C@@H](O[C@H]7[C@H](O)[C@@H](O)[C@@H](O[C@H]8[C@H](O)[C@@H](O)[C@@H](O[C@H]1[C@H](O)[C@H]2O)O[C@@H]8CO)O[C@@H]7CO)O[C@@H]6CO)O[C@@H]5CO)O[C@@H]4CO)O[C@@H]3CO` [Cyclodextrin, β-cyclodextrin] was tested, and the Collagen proliferation rate (human fibroblasts [1]; concentration 10^−4) was 102%, the Collagen proliferation rate (human fibroblasts [1]; concentration 10^−5) was 101% and the Collagen proliferation rate (human fibroblasts [1]; concentration 10^−6) was 102%. For the same compound, the “collagen proliferation, result in words (Table 2, FIG. 4)” value (shortened to “collagen proliferation, result in words”) (human fibroblasts [1]) was “not greatly improved”.

With `O=c1c(-c2ccc(O)cc2)coc2cc(O)cc(O)c12` [Genistein] the “cell viability dependent on concentration (FIG. 2)” value (from here on “cell viability dependent”) (human fibroblasts [2]) was “increased somewhat in proportion to concentration”, the Collagen proliferation rate (human fibroblasts [1]; concentration 10^−4) was 115% and the Collagen proliferation rate (human fibroblasts [1]; concentration 10^−5) was 112%. For the same compound, the Collagen proliferation rate (human fibroblasts [1]; concentration 10^−6) was 105% and the “collagen proliferation, result in words” value (human fibroblasts [1]) was “more excellent effects with increased concentration”.

In the case of `O=C1O[C@H]([C@@H](O)CO)C(O)=C1O` [Vitamin C], the Collagen proliferation rate (human fibroblasts [1]; concentration 10^−4) is reported as 98%, the Collagen proliferation rate (human fibroblasts [1]; concentration 10^−5) is reported as 105% and the Collagen proliferation rate (human fibroblasts [1]; concentration 10^−6) is reported as 106%. The “collagen proliferation, result in words” value (human fibroblasts [1]) was “decreased as its concentration increased”.

In the case of `CC1=C(/C=C/C(C)=C/C=C/C(C)=C/CO)C(C)(C)CCC1` [retinol], the “cell viability dependent” value (human fibroblasts [2]) is reported as “increased somewhat in proportion to concentration”.

hydroxypropyl β-cyclodextrin was tested, and the Collagen proliferation rate (human fibroblasts [1]; concentration 10^−4) was 104%, the Collagen proliferation rate (human fibroblasts [1]; concentration 10^−5) was 104% and the Collagen proliferation rate (human fibroblasts [1]; concentration 10^−6) was 101%. The “collagen proliferation, result in words” value (human fibroblasts [1]) was “not greatly improved”.

For tocopherol, the “cell viability dependent” value (human fibroblasts [2]) was “increased somewhat in proportion to concentration”.
